Source: patent US9663519B2, “Compounds useful as inhibitors of ATR kinase” (Vertex Pharmaceuticals Incorporated, priority 2013, dated 2017)

Experiments:
[1] = system: HCT116 colorectal cancer cells; assay: Cisplatin Sensitization Assay (96 h cell viability MTS); format: cell-based; settings: Cisplatin sensitization value: concentration of compound required to reduce the IC50 of Cisplatin alone by at least 3-fold; HCT116, 96 h MTS
Experimental: Compounds can be screened for their ability to sensitize HCT116 colorectal cancer cells to Cisplatin using a 96 h cell viability (MTS) assay. […] Compounds and Cisplatin are then both added simultaneously to the cell media in 2-fold serial dilutions from a top final concentration of 10 μM as a full matrix of concentrations in a final cell volume of 200 μl, and the cells are then incubated at 37° C. in 5% CO2. After 96 h, 40 μl of MTS reagent (Promega G358a) is added to each well and the cells are incubated for 1 h at 37° C. in 5% CO2. Finally, absorbance is measured at 490 nm using a SpectraMax Plus 384 reader (Molecular Devices) and the concentration of compound required to reduce the IC50 of Cisplatin alone by at least 3-fold (to 1 decimal place) can be reported.

full-length ATR = full-length ATR (Homo sapiens (Human), UniProt Q13535); assay: ATR Inhibition Assay (radioactive-phosphate incorporation); format: biochemical; settings: Ki(app); 5 nM full-length ATR, 10 μM ATP, 25° C.
Experimental: Compounds were screened for their ability to inhibit ATR kinase using a radioactive-phosphate incorporation assay. Assays were carried out in a mixture of 50 mM Tris/HCl (pH 7.5), 10 mM MgCl2 and 1 mM DTT. Final substrate concentrations were 10 μM [γ-33P]ATP (3 mCi 33P ATP/mmol ATP, Perkin Elmer) and 800 μM target peptide (ASELPASQPQPFSAKKK (SEQ. ID NO: 1)).
Assays were carried out at 25° C. in the presence of 5 nM full-length ATR. An assay stock buffer solution was prepared containing all of the reagents listed above, with the exception of ATP and the test compound of interest. 13.5 μL of the stock solution was placed in a 96 well plate followed by addition of 2 μL of DMSO stock containing serial dilutions of the test compound (typically starting from a final concentration of 15 μM with 3-fold serial dilutions) in duplicate (final DMSO concentration 7%). The plate was pre-incubated for 10 minutes at 25° C. and the reaction initiated by addition of 15 μL [γ-33P]ATP (final concentration 10 μM).
The reaction was stopped after […] by the addition of 30 μL 0.1M phosphoric acid containing 2 mM ATP. A multiscreen phosphocellulose filter 96-well plate (Millipore, Cat no. MAPHN0B50) was pretreated with 100 μL 0.2M phosphoric acid prior to the addition of 45 μL of the stopped assay mixture. The plate was washed with 5×200 μL 0.2M phosphoric acid. After drying, 100 μL Optiphase ‘SuperMix’ liquid scintillation cocktail (Perkin Elmer) was added to the well prior to scintillation counting (1450 Microbeta Liquid Scintillation Counter, Wallac).
After removing mean background values for all of the data points, Ki(app) data were calculated from non-linear regression analysis of the initial rate data using the Prism software package (GraphPad Prism version 3.0cx for Macintosh, GraphPad Software, San Diego Calif., USA).

Chain of full-length ATR (Q13535 whole entry): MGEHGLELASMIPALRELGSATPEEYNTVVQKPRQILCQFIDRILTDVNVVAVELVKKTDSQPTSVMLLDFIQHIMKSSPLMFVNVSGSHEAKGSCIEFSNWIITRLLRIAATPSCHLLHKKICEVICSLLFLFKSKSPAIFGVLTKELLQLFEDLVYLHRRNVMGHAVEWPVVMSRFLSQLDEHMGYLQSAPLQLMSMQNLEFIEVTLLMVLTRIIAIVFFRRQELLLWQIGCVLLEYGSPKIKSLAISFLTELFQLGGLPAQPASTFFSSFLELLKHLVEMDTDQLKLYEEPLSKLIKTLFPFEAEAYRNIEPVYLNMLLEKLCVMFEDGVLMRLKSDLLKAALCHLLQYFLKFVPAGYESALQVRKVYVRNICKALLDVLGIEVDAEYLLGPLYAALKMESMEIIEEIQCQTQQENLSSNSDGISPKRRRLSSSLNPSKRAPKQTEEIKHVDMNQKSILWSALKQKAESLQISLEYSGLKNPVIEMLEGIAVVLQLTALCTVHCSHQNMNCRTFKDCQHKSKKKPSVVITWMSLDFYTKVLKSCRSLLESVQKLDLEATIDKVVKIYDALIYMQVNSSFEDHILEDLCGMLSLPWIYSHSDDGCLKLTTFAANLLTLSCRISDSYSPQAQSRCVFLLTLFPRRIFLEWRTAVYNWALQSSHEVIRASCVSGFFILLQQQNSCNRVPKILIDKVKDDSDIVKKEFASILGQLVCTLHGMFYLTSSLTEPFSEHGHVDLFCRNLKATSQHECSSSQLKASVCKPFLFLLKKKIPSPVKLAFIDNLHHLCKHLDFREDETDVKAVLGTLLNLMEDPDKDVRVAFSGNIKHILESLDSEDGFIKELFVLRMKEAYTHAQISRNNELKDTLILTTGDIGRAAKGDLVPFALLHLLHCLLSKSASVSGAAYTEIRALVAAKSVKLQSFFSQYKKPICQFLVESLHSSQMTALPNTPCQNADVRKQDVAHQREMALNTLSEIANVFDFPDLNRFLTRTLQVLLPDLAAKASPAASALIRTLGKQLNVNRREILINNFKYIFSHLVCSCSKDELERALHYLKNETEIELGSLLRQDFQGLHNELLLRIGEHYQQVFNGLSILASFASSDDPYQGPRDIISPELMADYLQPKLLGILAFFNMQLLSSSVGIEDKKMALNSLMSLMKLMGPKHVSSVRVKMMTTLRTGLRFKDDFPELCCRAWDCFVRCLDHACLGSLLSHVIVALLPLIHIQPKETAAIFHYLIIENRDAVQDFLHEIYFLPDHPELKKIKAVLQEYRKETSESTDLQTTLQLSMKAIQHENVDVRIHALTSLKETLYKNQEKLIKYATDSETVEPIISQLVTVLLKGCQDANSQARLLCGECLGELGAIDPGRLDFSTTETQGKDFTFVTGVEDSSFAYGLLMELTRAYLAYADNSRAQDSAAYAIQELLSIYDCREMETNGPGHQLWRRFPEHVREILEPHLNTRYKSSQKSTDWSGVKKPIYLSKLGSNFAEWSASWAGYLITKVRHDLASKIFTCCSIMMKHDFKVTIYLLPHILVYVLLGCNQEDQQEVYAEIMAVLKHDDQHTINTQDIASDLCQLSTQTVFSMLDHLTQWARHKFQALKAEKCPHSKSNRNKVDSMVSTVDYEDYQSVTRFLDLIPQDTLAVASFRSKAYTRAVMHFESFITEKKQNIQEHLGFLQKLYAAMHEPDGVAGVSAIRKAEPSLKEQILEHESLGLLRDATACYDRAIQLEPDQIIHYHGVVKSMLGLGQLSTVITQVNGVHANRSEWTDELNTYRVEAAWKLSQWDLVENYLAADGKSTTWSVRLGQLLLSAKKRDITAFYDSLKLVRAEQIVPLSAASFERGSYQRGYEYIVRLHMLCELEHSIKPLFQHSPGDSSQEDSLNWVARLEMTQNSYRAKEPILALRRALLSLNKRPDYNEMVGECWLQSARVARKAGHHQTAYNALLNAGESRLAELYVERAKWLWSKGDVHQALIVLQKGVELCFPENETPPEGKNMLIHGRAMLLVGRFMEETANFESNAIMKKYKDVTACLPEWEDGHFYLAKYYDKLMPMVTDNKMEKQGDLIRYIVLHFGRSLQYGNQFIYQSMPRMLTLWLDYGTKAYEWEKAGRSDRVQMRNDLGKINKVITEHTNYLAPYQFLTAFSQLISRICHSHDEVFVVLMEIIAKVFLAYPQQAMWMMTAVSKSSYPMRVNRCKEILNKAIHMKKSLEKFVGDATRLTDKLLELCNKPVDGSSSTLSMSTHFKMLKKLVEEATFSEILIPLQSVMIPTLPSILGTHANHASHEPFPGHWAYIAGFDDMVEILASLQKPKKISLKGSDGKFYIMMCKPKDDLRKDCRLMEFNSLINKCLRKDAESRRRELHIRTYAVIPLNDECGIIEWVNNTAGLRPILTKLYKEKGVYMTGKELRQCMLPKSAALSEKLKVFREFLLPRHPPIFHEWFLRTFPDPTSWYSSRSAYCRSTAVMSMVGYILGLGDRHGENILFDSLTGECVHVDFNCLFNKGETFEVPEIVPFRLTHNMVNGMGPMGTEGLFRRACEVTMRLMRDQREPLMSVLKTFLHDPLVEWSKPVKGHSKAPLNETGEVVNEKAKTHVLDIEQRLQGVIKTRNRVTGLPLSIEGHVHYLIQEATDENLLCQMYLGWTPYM

Row | SMILES | Synergy with Cisplatin [1] | Ki (full-length ATR)
1 | COc1ccncc1NC(=O)c1c(N)nn2cc3c(nc12)CCNC3 [Compound I-2, 2-amino-N-(4-methoxypyridin-3-yl)-5,6,7,8-tetrahydropyrazolo[1,5-a]pyrido[4,3-d]pyrimidine-3-carboxamide] | ++ (Cisplatin sensitization value >0.02 μM but <0.2 μM) | 10 to 1000 nM
2 | Nc1nn2cc3c(nc2c1C(=O)Nc1cnccc1OCC(F)(F)F)CCNC3 [Compound I-4, 2-amino-N-(4-(2,2,2-trifluoroethoxy)pyridin-3-yl)-5,6,7,8-tetrahydropyrazolo[1,5-a]pyrido[4,3-d]pyrimidine-3-carboxamide] | +++ (Cisplatin sensitization value of <0.02 μM) | 10 to 1000 nM
3 | CC(C)Oc1ncncc1NC(=O)c1c(N)nn2cc3c(nc12)CCN(C)C3 [Compound I-16, 2-amino-N-(4-isopropoxypyrimidin-5-yl)-7-methyl-5,6,7,8-tetrahydropyrazolo[1,5-a]pyrido[4,3-d]pyrimidine-3-carboxamide] | ++ (Cisplatin sensitization value >0.02 μM but <0.2 μM) | 10 to 1000 nM
4 | CN1CCc2nc3c(C(=O)Nc4cncnc4C4CC4)c(N)nn3cc2C1 [Compound I-15, 2-amino-N-(4-cyclopropylpyrimidin-5-yl)-7-methyl-5,6,7,8-tetrahydropyrazolo[1,5-a]pyrido[4,3-d]pyrimidine-3-carboxamide] | ++ (Cisplatin sensitization value >0.02 μM but <0.2 μM) | 10 to 1000 nM
5 | Nc1nn2cc3c(nc2c1C(=O)Nc1cncc(F)c1C1CC1)CCN(C1COC1)C3 [Compound I-22, 2-amino-N-(4-cyclopropyl-5-fluoropyridin-3-yl)-7-(oxetan-3-yl)-5,6,7,8-tetrahydropyrazolo[1,5-a]pyrido[4,3-d]pyrimidine-3-carboxamide] | ++ (Cisplatin sensitization value >0.02 μM but <0.2 μM) | 10 to 1000 nM
6 | Cc1nsc(NC(=O)c2c(N)nn3cc4c(nc23)CCN(C2COC2)C4)c1C1CC1 [Compound I-33, 2-amino-N-(4-cyclopropyl-3-methylisothiazol-5-yl)-7-(oxetan-3-yl)-5,6,7,8-tetrahydropyrazolo[1,5-a]pyrido[4,3-d]pyrimidine-3-carboxamide] | +++ (Cisplatin sensitization value of <0.02 μM) | 10 to 1000 nM
7 | COc1ccncc1NC(=O)c1c(N)nn2cc3c(nc12)CCN(CCF)C3 [Compound I-19, 2-amino-7-(2-fluoroethyl)-N-(4-methoxypyridin-3-yl)-5,6,7,8-tetrahydropyrazolo[1,5-a]pyrido[4,3-d]pyrimidine-3-carboxamide] | ++ (Cisplatin sensitization value >0.02 μM but <0.2 μM) | 10 to 1000 nM
8 | COc1ccncc1NC(=O)c1c(N)nn2cc3c(nc12)CCN(C1CC1)C3 [Compound I-18, 2-amino-7-cyclopropyl-N-(4-methoxypyridin-3-yl)-5,6,7,8-tetrahydropyrazolo[1,5-a]pyrido[4,3-d]pyrimidine-3-carboxamide] | ++ (Cisplatin sensitization value >0.02 μM but <0.2 μM) | 10 to 1000 nM
9 | Nc1nn2cc3c(nc2c1C(=O)Nc1cnccc1C1CC1)CCN(C1COC1)C3 [Compound I-21, 2-amino-N-(4-cyclopropylpyridin-3-yl)-7-(oxetan-3-yl)-5,6,7,8-tetrahydropyrazolo[1,5-a]pyrido[4,3-d]pyrimidine-3-carboxamide] | ++ (Cisplatin sensitization value >0.02 μM but <0.2 μM) | 10 to 1000 nM
10 | CN1CCc2nc3c(C(=O)Nc4cncc(F)c4C4CC4)c(N)nn3cc2C1 [Compound I-12, 2-amino-N-(4-cyclopropyl-5-fluoropyridin-3-yl)-7-methyl-5,6,7,8-tetrahydropyrazolo[1,5-a]pyrido[4,3-d]pyrimidine-3-carboxamide] | ++ (Cisplatin sensitization value >0.02 μM but <0.2 μM) | 10 to 1000 nM
11 | COc1ncncc1NC(=O)c1c(N)nn2cc3c(nc12)CCNC3 [Compound I-9, 2-amino-N-(4-methoxypyrimidin-5-yl)-5,6,7,8-tetrahydropyrazolo[1,5-a]pyrido[4,3-d]pyrimidine-3-carboxamide] | + (Cisplatin sensitization value >0.2 μM but <5 μM) | 10 to 1000 nM
